{
  "source": "patent US7393526B2",
  "about": "“Systemic gene delivery vehicles for the treatment of tumors” (Children's Medical Center Corporation, priority 2000, dated 2008)",
  "key": {"CNS-1 glioblastoma": {"system": "CNS-1 glioblastoma", "assay": "Intracranial CNS-1 tumor co-transplanted with CD-NSCs, i.p. 5-FC: tumor mass", "format": "in vivo, adult nude mice", "conditions": "tumor alone, 5-FC 900 mg/kg i.p. for 10 days", "text": "CNS-1 glioblastoma cells alone, or CNS-1 cells co-transplanted with human CS-NSCs were implanted into the frontal lobe of adult nude mice. Two days later, treated animals began to receive daily intraperitoneal injections of 5-FC which continued for ten days. […] Note that there was about an 80% reduction in tumor mass in 5-FC-treated animals transplanted with tumor and CD-NSCs (FIG. 3D). […] FIGS. 3B, 3C and 3D are “camera lucida” sections of tumor areas on representative cryostat tissue sections, stained with X-gal and counterstained with neutral red.\nOn Day 0, adult nude mice received stereotactically guided injections into the right frontal lobe of CNS-1 glioblastoma alone (7×10^4 in 2 μl PBS), or CNS-1 cells mixed with CD-NSCs (7×10^4 CNS-1 and 3.5×10^4 NSCs in 2 μl PBS). Two days later treated animals received 10 intraperitoneal injections 900 mg/kg of 5-FC over a period of 10 days. Control animals received no 5-FC. Animals were sacrificed on day 13."}, "CNS-1 glioma cells": {"system": "CNS-1 glioma cells", "assay": "Co-culture of CD-NSCs with glioma cells plus 5-FC: tumor cell count per high-power field", "format": "cell-based", "conditions": "tumor cell-only plates, no CD-NSCs, 5-FC 500 μg/ml", "text": "FIGS. 2A-2C summarize the significant antitumor effect of CD-expressing NSCs in vitro. CNS-1 glioblastoma cells were co-cultured with murine CD-NSCs (FIGS. 2A and 2B) or human CD-NSCs. Representative low power fields are shown after fixation and X-gal staining (CD-NSCs dark blue, tumor cells pale) three days after plating with or without 5-FC. […] In this treatment regime, the NSCs were still dividing and thus also subject to elimination by 5-FU and its toxic metabolites. […] Note also, that the tumor-killing effect was virtually identical whether 50,000 or 100,000 CD-NSCs were initially plated with 200,000 tumor cells.\nThis experiment was performed to determine if modified CD-NSCs could effectively deliver therapy to tumor cells and produce a profound antitumor response. 200,000 CNS-1 glioma cells were plated into 10 cm Petri dishes. The following day (Day 1) media were replaced, and 50,000 or 100,000 CD-NSCs were added. On Day 2, media were replaced and 5-FC added (500 μg/ml). Control dishes included tumor-NSC co-cultures with no 5-FC treatment and tumor cell-only dishes with 5-FC treatment. Three days later, all plates were rinsed well with 1× PBS and fixed with 4% paraformaldehyde for 10 min at room temperature. […] Under high power, the numbers of tumor cells per field were counted. […]"}},
  "data": [
    {"smiles": "Nc1nc(=O)[nH]cc1F", "note": "[5-FC, 5-fluorocytosine]", "values": [
      {"measurement": "effect on tumor mass in the absence of CD-NSCs", "setting": "CNS-1 glioblastoma", "result": "no effect on tumor mass"},
      {"measurement": "killing of tumor cells, tumor alone", "setting": "CNS-1 glioma cells", "result": "not significantly killed"}
    ]}
  ]
}
